In patent US12590066B2, “Fused-heterocyclyl-carbonohydrazonoyl dicyanide compounds and use thereof” (KOREA INSTITUTE OF SCIENCE AND TECHNOLOGY, priority 2020, dated 2026):

Assays:
tau protein = biological target: T1, tau protein (Homo sapiens, UniProt P10636); experiment: Tau-BiFC cell model, inhibition of Forskolin-induced tau protein aggregation; assay type: cell-based; conditions: Forskolin 30 μM, 48 hours; for Tau BiFC in cells Response (% @10 μM): 10 μM compound, Forskolin-only group = 100% tau protein-aggregated state; for IC50: tau-BiFC cells
T1 construct: BiFC fluorescent-protein fragments (type and halves not specified); expressed in transfected cells
Description: In order to select novel tau protein aggregation-inhibiting substances, tau-BiFC cell model, in which formation of tau oligomers in living cells is easily observed, was used. Tau-BiFC cells were aliquoted into a 384-well plate. On the next day, the cells were treated with each of the compounds prepared according to Examples 1 to 57 at concentrations of 1 μM, 3 μM, and 10 μM, together with Forskolin (at a treatment concentration of 30 μM), which is a compound inducing tau protein aggregation by activating tau phosphorylase PKA. After 48 hours, nuclei in the cells were stained using Hoechst (at a treatment concentration of 2 μg/mL), and BiFC fluorescence intensity was automatically measured using Operetta (PerkinElmer) to count stained nuclei in each well out of the entire well plate. The group treated only with Forskolin, which induces tau protein aggregation, was set to a reference point of a 100% tau protein-aggregated state, and the effects of the compounds were confirmed using the equation “BiFC fluorescence intensity due to compound synthesized according to embodiment of present invention/(fluorescence intensity of control group treated only with Forskolin inducing tau protein aggregation−fluorescence intensity of untreated control group)×100”. Furthermore, the degree of cytotoxicity induced by the newly synthesized compound was also measured based on the 100% cell viability of the group treated only with Forskolin as a reference, and the cytotoxicity value of each compound was calculated using the equation “(number of stained nuclei in group treated with compound/number of stained nuclei in group treated with Forskolin)×100”. Based on the treatment results, substances inhibiting intracellular tau protein aggregation were selected from a series of candidate groups showing a tau protein aggregation inhibition rate of 70% or more and cell viability of 100% at a compound treatment concentration of 10 μM or more.
In order to evaluate dose-dependent tau protein aggregation inhibition effects of the compounds selected according to Experimental Example 1 on tau protein aggregation, tau-BiFC cells were treated with the selected compounds at concentrations of 0.03 μM, […], 0.3 μM, 1 μM, 3 μM, 10 μM, and 30 μM, respectively, together with Forskolin (at a treatment concentration of 30 μM), which is a tau protein aggregation-inducing substance. After 48 hours, tau protein aggregation reaction and degrees of cytotoxicity were analyzed by observing images of the cells. IC50 and toxicity of the compounds were analyzed by way of nonlinear regression analysis of prism software (Graph Pad).

Tau-BiFC cells = experiment: Cell viability (stained nuclei count) in Tau-BiFC cells; assay type: cell-based; conditions: 10 μM compound, 48 hours; Forskolin-only group = 100% cell viability
Description: In order to select novel tau protein aggregation-inhibiting substances, tau-BiFC cell model, in which formation of tau oligomers in living cells is easily observed, was used. Tau-BiFC cells were aliquoted into a 384-well plate. On the next day, the cells were treated with each of the compounds prepared according to Examples 1 to 57 at concentrations of 1 μM, 3 μM, and 10 μM, together with Forskolin (at a treatment concentration of 30 μM), which is a compound inducing tau protein aggregation by activating tau phosphorylase PKA. After 48 hours, nuclei in the cells were stained using Hoechst (at a treatment concentration of 2 μg/mL), and BiFC fluorescence intensity was automatically measured using Operetta (PerkinElmer) to count stained nuclei in each well out of the entire well plate. The group treated only with Forskolin, which induces tau protein aggregation, was set to a reference point of a 100% tau protein-aggregated state, and the effects of the compounds were confirmed using the equation “BiFC fluorescence intensity due to compound synthesized according to embodiment of present invention/(fluorescence intensity of control group treated only with Forskolin inducing tau protein aggregation−fluorescence intensity of untreated control group)×100”. Furthermore, the degree of cytotoxicity induced by the newly synthesized compound was also measured based on the 100% cell viability of the group treated only with Forskolin as a reference, and the cytotoxicity value of each compound was calculated using the equation “(number of stained nuclei in group treated with compound/number of stained nuclei in group treated with Forskolin)×100”. Based on the treatment results, substances inhibiting intracellular tau protein aggregation were selected from a series of candidate groups showing a tau protein aggregation inhibition rate of 70% or more and cell viability of 100% at a compound treatment concentration of 10 μM or more. […]

T1 sequence (P10636 1-441 isoform P10636-8): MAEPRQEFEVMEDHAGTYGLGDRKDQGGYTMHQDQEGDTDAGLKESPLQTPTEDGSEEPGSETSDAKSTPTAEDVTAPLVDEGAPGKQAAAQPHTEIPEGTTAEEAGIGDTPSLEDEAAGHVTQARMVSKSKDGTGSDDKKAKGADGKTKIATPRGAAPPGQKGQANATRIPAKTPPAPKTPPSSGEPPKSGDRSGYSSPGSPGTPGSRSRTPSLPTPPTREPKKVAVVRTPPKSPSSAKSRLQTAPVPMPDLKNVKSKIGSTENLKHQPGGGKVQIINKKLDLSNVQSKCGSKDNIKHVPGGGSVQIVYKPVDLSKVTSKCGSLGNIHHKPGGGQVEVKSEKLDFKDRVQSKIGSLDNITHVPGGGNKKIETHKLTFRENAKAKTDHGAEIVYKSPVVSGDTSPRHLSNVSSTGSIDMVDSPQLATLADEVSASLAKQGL

Structure (SMILES)	Tau BiFC in cells Response (% @10 μM) (tau protein) [%]	IC50 (tau protein) [nM]	Cell viability (% @10 μM) (Tau-BiFC cells) [%]
CCn1c(=O)n(C)c2cc(NN=C(C#N)C#N)ccc21 [Compound 38, (1-ethyl-3-methyl-2-oxo-2,3-dihydro-1H-benzo[d]imidazol-5-yl)carbonohydrazonoyl dicyanide]	−31	30	106
CCn1c(=O)n(C(C)C)c2ncc(NN=C(C#N)C#N)cc21 [Compound 55, (1-ethyl-3-isopropyl-2-oxo-2,3-dihydro-1H-imidazo[4,5-b]pyridin-6-yl)carbonohydrazonoyl dicyanide]	−32	110	124
N#CC(C#N)=NNc1cccc2c(=O)[nH]ccc12 [Compound 4, (1-oxo-1,2-dihydroisoquinolin-5-yl)carbonohydrazonoyl dicyanide]	0	1800	99.3
CC(C)n1ccc2c(NN=C(C#N)C#N)cccc2c1=O [Compound 6, (2-isopropyl-1-oxo-1,2-dihydroisoquinolin-5-yl)carbonohydrazonoyl dicyanide]	0	700	118.1
Cn1c(=O)n(C)c2c(Cl)cc(NN=C(C#N)C#N)cc21 [Compound 11, (7-chloro-1,3-dimethyl-2-oxo-2,3-dihydro-1H-benzo[d]imidazol-5-yl)carbonohydrazonoyl dicyanide]	0	100	142.3
CC(C)n1ccc2ccc(NN=C(C#N)C#N)cc2c1=O [Compound 3, (2-isopropyl-1-oxo-1,2-dihydroisoquinolin-7-yl)carbonohydrazonoyl dicyanide]	0	200	112
Cn1c(=O)n(C)c2cc(NN=C(C#N)C#N)ccc21 [Compound 22, (1,3-dimethyl-2-oxo-2,3-dihydro-1H-benzo[d]imidazol-5-yl)carbonohydrazonoyl dicyanide]	0	200	120.7
Cn1ccc2ccc(NN=C(C#N)C#N)cc2c1=O [Compound 2, (2-methyl-1-oxo-1,2-dihydroisoquinolin-7-yl)carbonohydrazonoyl dicyanide]	0	–	57.5
Cn1c(=O)n(C(F)F)c2cc(NN=C(C#N)C#N)ccc21 [Compound 37, (3-(difluoromethyl)-1-methyl-2-oxo-2,3-dihydro-1H-benzo[d]imidazol-5-yl)carbonohydrazonoyl dicyanide]	−49	200	121
CCn1c(=O)n(C)c2cc(NN=C(C#N)C#N)cnc21 [Compound 48, (3-ethyl-1-methyl-2-oxo-2,3-dihydro-1H-imidazo[4,5-b]pyridin-6-yl)carbonohydrazonoyl dicyanide]	−18	60	143
Cn1ccc2c(NN=C(C#N)C#N)cccc2c1=O [Compound 5, (2-methyl-1-oxo-1,2-dihydroisoquinolin-5-yl)carbonohydrazonoyl dicyanide]	0	–	41.4
Cc1cc2c(NN=C(C#N)C#N)cccc2c(=O)n1C [Compound 7, (2,3-dimethyl-1-oxo-1,2-dihydroisoquinolin-5-yl)carbonohydrazonoyl dicyanide]	0	200	101.9
N#CC(C#N)=NNc1ccc2c(c1)n(C(F)F)c(=O)n2C(F)F [Compound 24, (1,3-bis(difluoromethyl)-2-oxo-2,3-dihydro-1H-benzo[d]imidazol-5-yl)carbonohydrazonoyl dicyanide]	0	200	125.1
